Experimental data taken from US20220073475A1, “5-MEMBERED HETEROARYL COMPOUNDS CONTAINING A HYDROXAMATE MOIETY AND THEIR USE” (UNIVERSITE DE LILLE, priority 2019, published 2022).

melting point [°C]	SMILES
192.8 to 194	O=C(C[C@@H](Cc1ccc2ccccc2c1)n1cc(CNC(=O)c2ccccc2)nn1)NO [Compound 1, N-[1-((R)-2-Hydroxycarbamoyl-1-naphthalen-2-ylmethyl-ethyl)-1H-[1,2,3]triazol-4-ylmethyl]-benzamide]
115.8 to 117.2	Cc1ccc(S(=O)(=O)NCc2cn([C@@H](CC(=O)NO)Cc3ccc4ccccc4c3)nn2)cc1 [Compound 5, (R)—N-Hydroxy-4-naphthalen-2-yl-3-{4-[(toluene-4-sulfonylamino)-methyl]-[1,2,3]triazol-1-yl}-butyramide]
198.9 to 200.4	O=C(C[C@@H](Cc1ccc2ccccc2c1)n1cc(CNC(=O)c2ccc(C(F)(F)F)cc2)nn1)NO [Compound 4, N-[1-(R-2-Hydroxycarbamoyl-1-naphthalen-2-ylmethyl-ethyl)-1H-[1,2,3]triazol-4-ylmethyl]-4-trifluoromethyl-benzamide]
